Experimental data as given in patent US7351729B2, “JNK inhibitors for use in combination therapy for treating or managing proliferative disorders and cancers” (Signal Pharmaceuticals, LLC, priority 2002, dated 2008).

Key:
[1] = test system: HCT-116 human colorectal cancer cells; assay: HCT-116 tumor growth in SCID mice, JNK inhibitor C with Camptosar; type: in vivo, CB17 SCID mice; settings: JNK inhibitor C (15 mg/kg, i.p., b.i.d) + Camptosar (1.5 mg/kg, q4d)
Description: The following experiment was performed to determine the effectiveness of combination treatment with JNK inhibitor C (JNK inhibitor C=(3-(4-(2-Piperidin-1-yl-ethoxy)-cyclohexa-1,5-dienyl)-5-(2H-(1,2,4)triazol-3-yl)-1H-indazole)) and Camptosar. The results are illustrated in FIG. 5.
CB17 SCID mice were inoculated subcutaneously with HCT-116 human colorectal cancer cells. On day 8, mice bearing tumors of 100 mm^3 were segregated into groups and administered i.p. with vehicle (citrate buffer), JNK inhibitor C (15 mg/kg), JNK inhibitor C (30 mg/kg), JNK inhibitor C (15 mg/kg)+Camptosar (1.5 mg/kg), Camptosar (1.5 mg/kg) or Camptosar (10 mg/kg). The tumors were measured twice a week and volumes calculated. The dosing regimen for the compound JNK inhibitor C was b.i.d and for Camptosar was q4d. The arrows indicate the dosing days of JNK inhibitor C and Camptosar.

[2] = test system: Lewis Lung Carcinoma (LLC) cells; assay: Lewis Lung Carcinoma (LLC) proliferation in vitro, Alamar Blue fluorescence; type: cell-based; settings: combination with a chemodrug (doxorubican, 5-FU, cisplatin or paclitaxel), 48 hours after treatment, relative to JNK inhibitor or chemodrug alone
Description: This experiment was performed in vitro to determine the effect on Lewis Lung Carcinoma (LLC) proliferation of combination treatment with JNK inhibitor A and JNK inhibitor B (JNK inhibitor A=((2H-Dibenzo(cd,g)indazol-6-one)); JNK inhibitor B=(3-(4-fluoro-phenyl)-5-(2H-(1,2,4-triazol-3-yl)-1H-indazole)) and anti-cancer agents. The results are illustrated in FIGS. 1A and 1B.
LLC cells were grown in DMEM with 10% FBS. Cells were subsequently treated on the second day with either DMSO,JNK inhibitor A (3 μM, 10 μM or 30 μM), JNK inhibitor B (1 μM, 3 μM, or 10 μM), or a chemodrug (i.e., doxorubican, […] (5-FU), cisplatin or paclitaxel) (concentrations ranging from 0.001 μM to 10 μM) or a combination of JNK inhibitor A or JNK inhibitor B with a chemodrug. Cell proliferation was measured at 48 hours after treatment by Alamar Blue fluorescence.

[3] = test system: MiaPaCa cells; assay: MiaPaCa cell apoptosis, DiOC6 staining and flow cytometry; type: cell-based; settings: taxol for first 7 hours, washed out, then JNK inhibitor A; read at 48 hours; compared to taxol alone
Description: The following experiment was performed to determine the effectiveness of combination treatment with JNK inhibitor A and a chemodrug on apoptosis. The results are illustrated in FIG. 3.
MiaPaCa cells (100,000/well) were plated in 6 well plates. Following overnight incubation, vehicle or taxol was added alone for the first 7 hours, washed out, and then JNK inhibitor A or vehicle were added for the remainder of the experiment. After 48 hours, each sample was trypsinized, stained with DiOC6 and analyzed by flow cytometry on a Coulter Epics flow cytometer using FlowJo software.

[4] = test system: Lewis lung carcinoma; assay: LLC tumor growth in mice, JNK inhibitor A with cyclophosphamide; type: in vivo, C57BL/6 mice; settings: JNK inhibitor A in combination with cyclophosphamide; p=0.05; N=10
Description: The following experiment was performed to determine the effectiveness of combination treatment with JNK inhibitor A and cyclophosphamide. The results are illustrated in FIG. 4.
Tumor cells were cultured under normal conditions, harvested with trypsin, washed with PBS then resuspended, 1×10^7 cells/ml in Matrigel (Collaborative). C57BL/6 mice (female, 18-20 g, Charles River) were lightly anesthetized using Isofluorane then inoculated, subcutaneously, under the right flank with 0.1 ml Matrigel containing 1×10^6 tumor cells. Mice were randomized into treatment groups immediately after cell inoculation. After 3 days tumor growth treatment began. Mice were administered vehicle alone (DMSO), cyclophosphamide (CTX), JNK inhibitor A or CTX in combination with JNK inhibitor A. Tumor volumes were determined by caliper measurement. Tumor volume was calculated by the formula: mm^3=(L×W2)/2. Values are mean±sem, N=10.

[5] = test system: Lewis Lung Carcinoma (LLC) tumors; assay: LLC tumor growth in mice, JNK inhibitor B with cyclophosphamide; type: in vivo, C57BL/6 mice; settings: CTX (50 mg/kg, ip, q3d) in combination with JNK inhibitor B; 17 days; 10/group
Description: This experiment was performed to determine if JNK inhibitors will enhance the antitumor effects of cyclophosphamide (CTX) in combination treatment. Results are illustrated in FIG. 2.
Lewis Lung Carcinoma (LLC) tumors were injected into C57BL/6 mice (50 mice, 10/group), 1×10^6 cells in 0.1 ml Matrigel. Tumors were treated the day after inoculation by administration of vehicle alone (0.5% CMC/0.25% Tween 80), cyclophosphamide (CTX, 50 mg/kg, ip, q3d), SPC2 (75 mg/kg, ip, b.i.d.) or CTX in combination with JNK inhibitor B. Tumor volume was recorded over a period of 17 days. Tumor volume was calculated by the formula: mm^3=(L×W^2)/2. In the CTX/JNK inhibitor B combination group, 7/10 animals had no measurable tumors at the end of the study.

SMILES | tumor growth versus either treatment alone [1] | killing of cells (cell proliferation) [2] | chemotherapeutic induction of apoptosis [3] | tumor inhibition (tumor volume) versus cyclophosphamide alone [4] | animals with no measurable tumors at the end of the study [5]
C1=CC(OCCN2CCCCC2)CC=C1c1n[nH]c2ccc(-c3ncn[nH]3)cc12 (stereo not drawn) [JNK inhibitor C, 3-(4-(2-Piperidin-1-yl-ethoxy)-cyclohexa-1,5-dienyl)-5-(2H-(1,2,4)triazol-3-yl)-1H-indazole] | significantly slower | – | – | – | –
O=C1c2ccccc2-c2n[nH]c3cccc1c23 [JNK inhibitor A, 2H-Dibenzo(cd,g) indazol-6-one] | – | increased killing of cells | Potentiates Chemotherapeutic Induction of Apoptosis | significantly less | –
Fc1ccc(-c2n[nH]c3ccc(-c4ncn[nH]4)cc23)cc1 [JNK inhibitor B, 3-(4-fluoro-phenyl)-5-(2H-(1,2,4)triazol-3-yl)-1H-indazole] | – | increased killing of cells | – | – | 7/10
